Measured values reported in patent US12692241B2, “Substituted triazine compound” (Nico Therapeutics, Inc., priority 2021, dated 2026).
Counter-ions that a name gives are not always drawn. Like-named read-outs stand apart in the source and are kept apart here.

Experiments:
[1] = tested on: IL-1β p17 in cerebrospinal fluid; assay: Rat central nervous system IL-1β production test; type: in vivo; conditions: male Wistar rats, oral, LPS and BzATP in cisterna magna
Method: Rat Central Nervous System IL-1β Production Test
Male Wistar rats of 10-14 weeks old were administered with 12.5 μg/5 μL LPS (SIGMA, L2880) in the cisterna magna under isoflurane anesthesia. Two hours later, a test compound was orally administered. Further one hour later, 50 μg/5 μL BzATP (2′(3′)—O-(4-benzoylbenzoyl)adenosine 5′-triphosphate triethylammonium salt, SIGMA, B6396) was administered in the cisterna magna. Thirty minutes later, the cerebrospinal fluid was collected. The cerebrospinal fluid was subjected to Western blotting using an anti-IL-1β antibody (Millipore, AB1832P) to measure IL-1β p17, and then, the suppression rate thereof relative to the solvent-administered group was calculated.
In the Table, Dose refers to a dosage amount of each test compound, and Ex59, Ex75, Ex131, Ex132 and Ex164 represent Example 59, Example 75, Example 131, Example 132 and Example 164, respectively. It was confirmed that the compounds have inhibitory effects on IL-1β production.

[2] = tested on: IL-1β production in THP-1 cells (LPS and ATP; NLRP3 inflammasome activation); assay: THP-1 IL-1β production inhibitory test; type: cell-based, human; conditions: PMA-differentiated THP-1 cells, LPS 50 ng/mL and ATP 5 mM, 2 hours, ELISA, read-out: IC50 (nM), IL-1β production
Summary of the method: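 THP-1 cells were differentiated with 50 ng/mL PMA for 2 days, then held 15 min at 37 °C. Cells were stimulated with 50 ng/mL LPS plus 5 mM ATP for 2 h, and supernatant IL-1β was measured by ELISA. IC50 came from sigmoidal Emax nonlinear regression.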

[3] = tested on: TNF-α production in THP-1 cells (LPS); assay: TNF-α production inhibitory test; type: cell-based; conditions: Homo sapiens; PMA-differentiated THP-1 cells, LPS 50 ng/mL, 2 hours, ELISA
Method: TNF-α Production Inhibitory Test
To THP-1 cells, 50 ng/mL PMA (phorbol myristate acetate, SIGMA, P1585) was added and then the cells were cultured at 37° C. for 2 days. The culture medium was exchanged with serum-free RPMI-1640 medium, and a compound known in concentration was added. The cells were cultured at 37° C. for 15 minutes. LPS (lipopolysaccharide, SIMGA, L2880) was added such that the final concentrations of them became 50 ng/mL. The cells were cultured at 37° C. for 2 hours. The supernatant was collected and the concentration of TNF-α was measured by ELISA (DuoSet ELISA human TNF-α, R&D Systems, DY201). The concentration of TNF-α was plotted against the logarithm of the concentration of the test compound, and the IC50 value was calculated by sigmoidal Emax model nonlinear regression analysis.

[4] = molecular target: human Ether-a-go-go Related Gene (hERG) channel (Homo sapiens, UniProt Q12809); assay: Safety pharmacological test: hERG channel inhibitory effect; type: biochemical
Method: Safety Pharmacological Test
As a safety pharmacological test, the human Ether-a-go-go Related Gene (hereinafter referred to as hERG) channel inhibitory effect was evaluated. The hERG channel inhibitory effect was evaluated using a modified method described in Combinatorial Chemistry & High Throughput Screening, 12, 1, 78-95 (2009).

3T3 NRU phototoxicity = assay: In vitro phototoxicity test (3T3 NRU); type: cell-based; conditions: ICH S10 / OECD 432 in vitro 3T3 NRU phototoxicity test
Source text: In Vitro Phototoxicity Test
The evaluation of in vitro phototoxicity tests was based on ICH S10: Guidelines for Evaluation of Phototoxicity of Drugs (Notification No. 0521-1) and OECD guideline for testing of chemicals 432: In vitro 3T3 NRU phototoxicity test, 2004, which was described in the OECD report.

human Ether-a-go-go Related Gene (hERG) channel, sequence (Q12809 whole entry): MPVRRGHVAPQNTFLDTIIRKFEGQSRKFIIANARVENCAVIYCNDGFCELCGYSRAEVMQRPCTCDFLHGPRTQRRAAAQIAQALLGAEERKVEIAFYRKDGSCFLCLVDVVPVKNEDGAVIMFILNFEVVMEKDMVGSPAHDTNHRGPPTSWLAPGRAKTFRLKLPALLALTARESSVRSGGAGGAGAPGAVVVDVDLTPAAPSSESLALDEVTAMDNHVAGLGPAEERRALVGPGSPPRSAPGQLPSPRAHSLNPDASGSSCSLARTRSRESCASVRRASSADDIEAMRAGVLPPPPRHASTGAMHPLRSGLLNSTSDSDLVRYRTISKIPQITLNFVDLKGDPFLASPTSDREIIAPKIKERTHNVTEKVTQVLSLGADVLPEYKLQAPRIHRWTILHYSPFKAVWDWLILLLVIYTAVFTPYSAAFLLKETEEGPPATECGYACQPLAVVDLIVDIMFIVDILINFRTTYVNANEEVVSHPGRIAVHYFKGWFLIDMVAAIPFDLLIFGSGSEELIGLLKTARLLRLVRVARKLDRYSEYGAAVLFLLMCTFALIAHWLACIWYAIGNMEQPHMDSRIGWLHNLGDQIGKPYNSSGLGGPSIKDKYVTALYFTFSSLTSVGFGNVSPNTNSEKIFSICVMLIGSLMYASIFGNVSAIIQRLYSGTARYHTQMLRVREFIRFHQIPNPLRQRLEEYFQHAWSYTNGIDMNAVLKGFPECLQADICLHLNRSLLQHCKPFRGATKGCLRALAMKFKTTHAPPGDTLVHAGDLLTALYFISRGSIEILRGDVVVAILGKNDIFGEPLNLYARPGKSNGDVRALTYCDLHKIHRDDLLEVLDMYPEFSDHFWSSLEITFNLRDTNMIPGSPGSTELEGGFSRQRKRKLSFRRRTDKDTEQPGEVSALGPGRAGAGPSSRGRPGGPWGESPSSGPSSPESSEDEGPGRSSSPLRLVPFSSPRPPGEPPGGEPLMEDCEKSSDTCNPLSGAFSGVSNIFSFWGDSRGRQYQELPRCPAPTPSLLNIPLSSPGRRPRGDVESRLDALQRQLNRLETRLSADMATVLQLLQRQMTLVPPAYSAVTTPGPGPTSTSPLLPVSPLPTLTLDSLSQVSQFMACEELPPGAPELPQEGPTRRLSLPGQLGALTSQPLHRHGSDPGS

In the case of COc1ccc(-c2nnc(N[C@@H]3CCCC[C@H]3O)nc2C)c(O)c1 [Ex59], the “suppression rate of IL-1β p17 relative to the solvent-administered group” value ([1]; Dose 0.3 mg/kg) is reported as 45%, the “suppression rate of IL-1β p17 relative to the solvent-administered group” value ([1]; Dose 1 mg/kg) is reported as 54% and the “suppression rate of IL-1β p17 relative to the solvent-administered group” value ([1]; Dose 3 mg/kg) is reported as 85%.
In the case of Cc1nc(N[C@@H]2CCC[C@H](O)C2)nnc1-c1ccc(C(F)(F)F)cc1O [Ex75], the “suppression rate of IL-1β p17 relative to the solvent-administered group” value ([1]; Dose 0.3 mg/kg) is reported as 12%, the “suppression rate of IL-1β p17 relative to the solvent-administered group” value ([1]; Dose 1 mg/kg) is reported as 73% and the “suppression rate of IL-1β p17 relative to the solvent-administered group” value ([1]; Dose 3 mg/kg) is reported as 100%.
For Cc1nc(N[C@@H]2CCCC[C@H]2O)nnc1-c1ccc(OC(F)F)cc1O [Ex131], the “suppression rate of IL-1β p17 relative to the solvent-administered group” value ([1]; Dose 0.3 mg/kg) was −33%, the “suppression rate of IL-1β p17 relative to the solvent-administered group” value ([1]; Dose 1 mg/kg) was −54% and the “suppression rate of IL-1β p17 relative to the solvent-administered group” value ([1]; Dose 3 mg/kg) was 61%.
Cc1nc(N[C@@H]2CCCC[C@H]2N)nnc1-c1ccc(C(F)(F)F)cc1O [Ex132] was tested, and the “suppression rate of IL-1β p17 relative to the solvent-administered group” value ([1]; Dose 0.3 mg/kg) was −3.7%^, the “suppression rate of IL-1β p17 relative to the solvent-administered group” value ([1]; Dose 1 mg/kg) was 88% and the “suppression rate of IL-1β p17 relative to the solvent-administered group” value ([1]; Dose 3 mg/kg) was 88%.
For Cc1nc(N[C@@H]2CCCN(C)C2)nnc1-c1ccc(C(F)(F)F)cc1O [Ex164], the “suppression rate of IL-1β p17 relative to the solvent-administered group” value ([1]; Dose 0.3 mg/kg) was 67%, the “suppression rate of IL-1β p17 relative to the solvent-administered group” value ([1]; Dose 1 mg/kg) was 81% and the “suppression rate of IL-1β p17 relative to the solvent-administered group” value ([1]; Dose 3 mg/kg) was 80%.
In the case of Cc1nc(N[C@@H]2CCCC[C@H]2O)nnc1-c1ccc(OC(F)(F)F)cc1O [Example 27, 2-(3-{[(1R,2R)-2-hydroxycyclohexyl]amino}-5-methyl-1,2,4-triazin-6-yl)-5-(trifluoromethoxy)phenol], the IC50 ([2]; Homo sapiens, THP-1, 2 h) is reported as 10 nM and the IC50 [3] is reported as at least 10000 nM.
Compound Cc1nc(N[C@@H]2CCOC[C@H]2O)nnc1-c1ccc(Cl)cc1O [Example 31, (3S,4R)-4-{[6-(4-chloro-2-hydroxyphenyl)-5-methyl-1,2,4-triazin-3-yl]amino}oxan-3-ol] has an IC50 ([2]; Homo sapiens, THP-1, 2 h) of 25 nM and an IC50 [3] of at least 10000 nM.
COc1ccc(-c2nnc(N[C@@H]3CCCC[C@H]3O)nc2C)c(O)c1 [Example 59, 2-(3-{[(1R,2R)-2-hydroxycyclohexyl]amino}-5-methyl-1,2,4-triazin-6-yl)-5-methoxyphenol] was tested, and the IC50 [4] was at least 10000 nM, the phototoxic effect (3T3 NRU phototoxicity) was “no phototoxic effect” and the IC50 ([2]; Homo sapiens, THP-1, 2 h) was 14 nM. It also gave an IC50 [3] of at least 10000 nM.
Compound Cc1nc(N[C@@H]2CCCN(C3CC3)C2)nnc1-c1ccc(C(F)(F)F)cc1O [Example 73, 2-(3-{[(3R)-1-cyclopropylpiperidin-3-yl]amino}-5-methyl-1,2,4-triazin-6-yl)-5-(trifluoromethyl)phenol] has an IC50 ([2]; Homo sapiens, THP-1, 2 h) of 1.3 nM and an IC50 [3] of at least 10000 nM.
For Cc1nc(N[C@@H]2CCC[C@H](O)C2)nnc1-c1ccc(C(F)(F)F)cc1O [Example 75, 2-(3-{[(1R,3S)-3-hydroxycyclohexyl]amino}-5-methyl-1,2,4-triazin-6-yl)-5-(trifluoromethyl)phenol], the IC50 [4] was at least 10000 nM, the phototoxic effect (3T3 NRU phototoxicity) was “no phototoxic effect” and the IC50 ([2]; Homo sapiens, THP-1, 2 h) was 6.5 nM. The IC50 [3] was at least 10000 nM.
For CC1(O)CC(Nc2nnc(-c3ccc(C(F)(F)F)cc3O)c(C3CC3)n2)C1 (stereo not drawn) [Example 108, 2-(5-cyclopropyl-3-{[(1s,3s)-3-hydroxy-3-methylcyclobutyl]amino}-1,2,4-triazin-6-yl)-5-(trifluoromethyl)phenol], the IC50 ([2]; Homo sapiens, THP-1, 2 h) was 21 nM and the IC50 [3] was at least 10000 nM.
With Cc1nc(N[C@@H]2CCCC[C@H]2O)nnc1-c1ccc(OC(F)F)cc1O [Example 131, 5-(difluoromethoxy)-2-(3-{[(1R,2R)-2-hydroxycyclohexyl]amino}-5-methyl-1,2,4-triazin-6-yl)phenol] the IC50 [4] was at least 10000 nM, the phototoxic effect (3T3 NRU phototoxicity) was “no phototoxic effect” and the IC50 ([2]; Homo sapiens, THP-1, 2 h) was 9.5 nM. For the same compound, the IC50 [3] was at least 10000 nM.
In the case of Cc1nc(N[C@@H]2CCCC[C@H]2N)nnc1-c1ccc(C(F)(F)F)cc1O [Example 132, 2-(3-{[(1R,2R)-2-aminocyclohexyl]amino}-5-methyl-1,2,4-triazin-6-yl)-5-(trifluoromethyl)phenol], the IC50 [4] is reported as at least 10000 nM, the phototoxic effect (3T3 NRU phototoxicity) is reported as “no phototoxic effect” and the IC50 ([2]; Homo sapiens, THP-1, 2 h) is reported as 15 nM. It also gave an IC50 [3] of at least 10000 nM.
In the case of Cc1nc(NC[C@H]2CNCCO2)nnc1-c1ccc(C(F)(F)F)cc1O [Example 141, 2-[5-methyl-3-({[(2R)-morpholin-2-yl]methyl}amino)-1,2,4-triazin-6-yl]-5-(trifluoromethyl)phenol], the IC50 ([2]; Homo sapiens, THP-1, 2 h) is reported as 470 nM and the IC50 [3] is reported as at least 10000 nM.
In the case of Cc1nc(N[C@@H]2CCCN(C)C2)nnc1-c1ccc(C(F)(F)F)cc1O [Example 164], the IC50 [4] is reported as at least 10000 nM, the phototoxic effect (3T3 NRU phototoxicity) is reported as “no phototoxic effect” and the IC50 [2] is reported as 1.5 nM. It also gave an IC50 [3] of at least 10000 nM.
Compound Cc1nc(N[C@@H]2CCCN(C)C2)nnc1-c1ccc(OC(F)F)cc1O [Example 174, 5-(difluoromethoxy)-2-(5-methyl-3-{[(3R)-1-methylpiperidin-3-yl]amino}-1,2,4-triazin-6-yl)phenol] has an IC50 ([2]; Homo sapiens, THP-1, 2 h) of 1.1 nM and an IC50 [3] of at least 10000 nM.
Work on Cc1nc(N[C@@H]2CCCC[C@H]2N)nnc1-c1ccc(C(F)(F)F)cc1O [Example 188, 2-(3-{[(1R,2R)-2-aminocyclohexyl]amino}-5-methyl-1,2,4-triazin-6-yl)-5-(trifluoromethyl)phenol dihydrochloride] yielded an IC50 ([2]; dihydrochloride) of 21 nM.
